Source: patent US7608633B2, “Heteroaryl-substituted acetone derivatives as inhibitors of phospholipase A2” (Merckle GmbH, priority 2003, dated 2009)

Assays:
[1] = target: T1, cytosolic phospholipase A2 (Homo sapiens, UniProt P47712); assay: Inhibition of cytosolic phospholipase A2 in intact human platelets stimulated with calcium ionophor A23187 (arachidonic acid release, HPLC); type: cell-based; conditions: concentration of 10 μM, calcium ionophor A23187 stimulation, one collective range for the six compounds, read-out: inhibited the activity of cytosolic phospholipase A2
T1 construct: endogenous in cells; host or cells: intact human platelets (thrombocytes)
T1 sequence (P47712 1-749): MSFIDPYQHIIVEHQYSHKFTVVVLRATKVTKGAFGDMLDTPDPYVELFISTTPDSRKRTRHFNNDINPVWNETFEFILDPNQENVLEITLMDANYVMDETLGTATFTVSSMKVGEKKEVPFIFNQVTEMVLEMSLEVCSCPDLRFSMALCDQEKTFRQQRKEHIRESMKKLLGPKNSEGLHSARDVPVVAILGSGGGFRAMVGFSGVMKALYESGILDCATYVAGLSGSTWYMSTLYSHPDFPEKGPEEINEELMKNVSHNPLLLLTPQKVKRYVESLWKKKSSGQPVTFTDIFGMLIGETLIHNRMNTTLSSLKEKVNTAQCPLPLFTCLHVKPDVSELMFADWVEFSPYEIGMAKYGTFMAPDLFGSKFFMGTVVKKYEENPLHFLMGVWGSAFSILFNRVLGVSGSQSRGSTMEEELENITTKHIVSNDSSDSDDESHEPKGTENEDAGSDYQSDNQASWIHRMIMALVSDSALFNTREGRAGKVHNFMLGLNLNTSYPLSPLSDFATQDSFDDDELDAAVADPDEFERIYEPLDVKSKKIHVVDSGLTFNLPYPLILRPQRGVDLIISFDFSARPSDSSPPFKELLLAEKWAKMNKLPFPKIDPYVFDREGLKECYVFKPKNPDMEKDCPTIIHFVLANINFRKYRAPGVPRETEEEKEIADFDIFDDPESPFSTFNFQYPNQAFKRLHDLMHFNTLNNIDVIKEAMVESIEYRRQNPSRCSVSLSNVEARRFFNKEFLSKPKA
From the text: The effectiveness of the compounds according to the invention can be determined by the inhibition of cytosolic phospholipase A2. To this end, cytosolic phospholipase A2 is stimulated in intact human thrombocytes with calcium ionophor A23187 so as to trigger the release of arachidonic acid from the membrane phospholipids. In order to prevent the metabolization of the enzyme product arachidonic acid via the cyclooxygenase route and the 12-lipoxygenase route, the dual cyclooxygenase/12-lipoxygenase-inhibitor 5,8,11,14-eicosatetraynoic acid is added. Following purification by means of solid phase extraction, the released arachidonic acid is determined by reversed phase-HPLC using U.V. detection. The inhibition of the enzyme by a test substance follows from the ratio of the arachidonic acid amounts formed in the presence or absence of the test substance. More detailed information on the test system is made in Example 10.
The effectiveness of the compounds according to the invention can be determined by the inhibition of cytosolic phospholipase A2. The test method used was described earlier (Lehr M. et al., Arch. Pharm. Pharm. Med. Chem. 2000, 333, 312-314). Here, the arachidonic acid formed by cytosolic phospholipase A2 in intact human platelets following stimulation using calcium ionophor A23187 is detected in the presence and absence of test substances.

melting point | inhibition at 10 µM [1] | Structure (SMILES)
 | 40 to 95% | CCCCCCCCc1ccc(OCC(=O)Cn2ccc3cc(C(=O)O)ccc32)cc1 [Example 9, 1-[3-(4-Octylphenoxy)-2-oxopropyl]indole-5-carboxylic acid]
77 °C |  | CCCCCCCCc1ccc(OCC(=O)Cn2ccc3cc(Cl)ccc32)cc1 [Example 13, 1-(5-Chloroindol-1-yl)-3-(4-octylphenoxy)propan-2-one]
85 °C |  | CCCCCCCCc1ccc(OCC(=O)Cn2ccc3cc(OC)ccc32)cc1 [Example 14, 1-(5-Methoxyindol-1-yl)-3-(4-octylphenoxy)propan-2-one]
96 °C |  | CCCCCCCCc1ccc(OCC(=O)Cn2ccc3cc(C#N)ccc32)cc1 [Example 15, 1-(3-(4-Octylphenoxy)-2-oxopropyl]indole-5-carbonitrile]
96 °C |  | CCCCCCCCc1ccc(OCC(=O)Cn2ccc3cc(C=O)ccc32)cc1 [Example 16, 1-[3-(4-Octylphenoxy)-2-oxopropyl]indole-5-carbaldehyde]
118 °C |  | CCCCCCCCc1ccc(OCC(=O)Cn2ccc3cc(C(=O)OC)ccc32)cc1 [Example 17, Methyl-1-(3-(4-octylphenoxy)-2-oxopropyl]indole-5-carboxylate]
114 °C |  | CCCCCCCOc1ccc(OCC(=O)Cn2ccc3cc(C(N)=O)ccc32)cc1 [Example 26, 1-[3-(4-Heptyloxyphenoxy)-2-oxopropyl]indole-5-carbamide]
171 °C |  | CCCCCCCn1ccc2cc(OCC(=O)Cn3ccc4cc(C(N)=O)ccc43)ccc21 [Example 30, 1-[3-(1-Heptylindol-5-yloxy)-2-oxopropyl]indole-5-carbamide]

Second part, the compound before the results:

Structure (SMILES) | melting point | inhibition at 10 µM [1]
CCCCCCCCc1ccc(OCC(=O)Cn2cccc2)cc1 | 58 to 59 °C | 
CCCCCCCCc1ccc(OCC(=O)Cn2cc(C=O)c3cc(C(=O)O)ccc32)cc1 | 193 °C | 
CCCCCCCCc1ccc(OCC(=O)Cn2cc(C(C)=O)c3cc(C(=O)O)ccc32)cc1 | 197 °C | 
CCCCCCCCc1ccc(OCC(=O)Cn2cc(C(=O)OC)c3cc(C(=O)O)ccc32)cc1 | 208 °C | 
CCCCCCCCc1ccc(OCC(=O)Cn2ccc3ccccc32)cc1 | 65 °C | 
CCCCCCCCc1ccc(OCC(=O)Cn2ncc3ccccc32)cc1 | 66 to 67 °C | 
CCCCCCCCc1ccc(OCC(=O)Cn2cccn2)cc1 [Example 2, 1-(4-Octylphenoxy)-3-(pyrazol-1-yl)propan-2-one] |  | 40 to 95%
CCCCCCCCc1ccc(OCC(=O)Cn2cccc2C(=O)O)cc1 [Example 5, 1-[3-(4-Octylphenoxy)-2-oxopropyl]pyrrol-2-carboxylic acid] | 157 °C (dec.) | 40 to 95%
CCCCCCCCc1ccc(OCC(=O)Cn2ccc(C(=O)O)c2)cc1 [Example 6, 1-[3-(4-Octylphenoxy)-2-oxopropyl]pyrrole-3-carboxylic acid] |  | 40 to 95%
CCCCCCCCc1ccc(OCC(=O)Cn2c(C(=O)O)cc3ccccc32)cc1 [Example 7, 1-[3-(4-Octylphenoxy)-2-oxopropyl]indole-2-carboxylic acid] | 173 °C | 40 to 95%
CCCCCCCCc1ccc(OCC(=O)Cn2cc(C(=O)O)c3ccccc32)cc1 [Example 8, 1-[3-(4-Octylphenoxy)-2-oxopropyl]indole-3-carboxylic acid] | 182 to 183 °C | 40 to 95%
CCCCCCCCc1ccc(OCC(=O)Cn2cc(C(C)(C)C)c3cc(C(=O)O)ccc32)cc1 [Example 18, 3-tert-Butyl-1-[3-(4-octylphenoxy)-2-oxopropyl]indole-5-carboxylic acid] | 146 to 147 °C | 
CCCCCCCCc1ccc(OCC(=O)Cn2cc(Cl)c3cc(C(=O)O)ccc32)cc1 [Example 19, 3-Chloro-1-[3-(4-octylphenoxy)-2-oxopropyl]indole-5-carboxylic acid] | 157 °C | 
CCCCCCCCc1ccc(OCC(=O)Cn2cc(C(C)(C)C)c3ccc(C(=O)O)cc32)cc1 [Example 23, 3-tert-Butyl-1-[3-(4-octylphenoxy)-2-oxopropyl]indole-6-carboxylic acid] | 145 to 146 °C | 
